Among the data in patent publication US20110166121A1 (LG LIFE SCIENCES LTD., priority 2008, published 2011) are Ki and IC50 values, retold here.

A word on the Ki: it is a dissociation constant, usually derived from enzyme kinetics or from competition with a known ligand. Low values mean a stronger hold on the target, high ones a looser hold on the target. As a reminder, the IC50 is the concentration that gives 50% inhibition.

Assay [1] has as its system Human platelet aggregation caused by ADP. The experiment in a line: Inhibition of ADP-induced platelet aggregation (Mimic-human PRP). The class given is cell-based. As to conditions: 20 μM ADP, human platelet concentrate diluted with PPP, absorption at 595 nm. Summed up:
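Human PRP diluted with PPP to 3–4×10^8 platelets/mL was preincubated 20 min at room temperature with compound (0.01–30 μM, DMSO), then stimulated with 20 μM ADP. Aggregation read as A595 increase at 3 min versus 0 and 20 μM ADP controls; Ki from sigmoidal non-linear regression.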

The target of the next assay is T1, Human P2Y12 receptor (Homo sapiens, UniProt Q9H244).
T1 construct: expressed in transfected cells; host or cells: HEK cells
The experiment in a line: Human P2Y12 receptor cell membrane binding assay with [3H] 2-Mes-ADP. As to conditions: 1 nM [3H] 2-Mes-ADP, membranes of HEK cells expressing P2Y12 receptor; read-out: Binding activity (IC50). Summed up:
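Membranes from HEK cells expressing human P2Y12 were incubated with compound and 1 nM [3H]2-MeS-ADP for 1 h at room temperature. Bound radioactivity was collected by GF/B filtration.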

T1 sequence (Q9H244 whole entry): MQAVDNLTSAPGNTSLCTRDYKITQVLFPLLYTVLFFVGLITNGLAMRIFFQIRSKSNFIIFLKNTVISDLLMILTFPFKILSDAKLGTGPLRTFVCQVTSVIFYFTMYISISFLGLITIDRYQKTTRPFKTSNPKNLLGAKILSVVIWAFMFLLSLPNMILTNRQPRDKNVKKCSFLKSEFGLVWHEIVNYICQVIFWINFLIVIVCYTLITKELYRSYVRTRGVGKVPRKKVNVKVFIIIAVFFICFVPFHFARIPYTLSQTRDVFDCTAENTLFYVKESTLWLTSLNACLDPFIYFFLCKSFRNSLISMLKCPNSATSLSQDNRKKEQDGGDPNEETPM

Consider `CCCc1cc2c(N3CCn4c(nnc4C(F)(F)F)C3)nc(Oc3ccc(OCC(=O)O)cc3)nc2s1` [Example 3-44, {4-[6-Propyl-4-(3-trifluoromethyl-5,6-dihydro-8H-[1,2,4]triazolo[4,3-a]pyrazin-7-yl)-thieno[2,3-d]pyrimidin-2-yloxy]-phenoxy}-acetic acid], for which the affinity in assay [1] corresponds to a Ki of 500 nM. Also, on Human P2Y12 receptor, the IC50 came to 180 nM.
Taken in the same sequence, the figures for `CCCc1cc2c(N3CCn4c(nnc4C(F)(F)F)C3)nc(N3CCCC(C(=O)OC(C)C)C3)nc2s1` (stereo not shown) [Example 1-47, 1-[6-Propyl-4-(3-trifluoromethyl-5,6-dihydro-8H-[1,2,4]triazolo[4,3-a]pyrazin-7-yl)-thieno[2,3-d]pyrimidin-2-yl]-piperidine-3-carboxylic acid isopropyl ester] were 1900 nM and 280 nM.
On to `CCCc1cc2c(N3CCn4c(nnc4C(F)(F)F)C3)nc(N3CC[C@H](NS(C)(=O)=O)C3)nc2s1` [Example 1-113, N-{(S)-1-[6-Propyl-4-(3-trifluoromethyl-5,6-dihydro-8H-[1,2,4]triazolo[4,3-a]pyrazin-7-yl)-thieno[2,3-d]pyrimidin-2-yl]-pyrrolidin-3-yl}-methanesulfonamide], for which the Ki in assay [1] is 36 nM. Moreover, the IC50 on Human P2Y12 receptor worked out at 32 nM.
For `CCCc1cc2c(N3CCn4c(nnc4C(F)(F)F)C3)nc(N3CC[C@@H](OC(C)=O)C3)nc2s1` [Example 1-23, Acetic Acid (R)-1-[6-propyl-4-(3-trifluoromethyl-5,6-dihydro-8H-[1,2,4]triazolo[4,3-a]pyrazin-7-yl)-thieno[2,3-d]pyrimidin-2-yl]-pyrrolidin-3-yl ester], in that order: 94 nM and 90 nM.
For `CCCc1nc2c(N3CCn4c(nnc4C(F)(F)F)C3)nc(N3CCC[C@H](C(=O)O)C3)nc2s1` [Example 5-7, (S)-1-[2-Propyl-7-(3-trifluoromethyl-5,6-dihydro-8H-[1,2,4]triazolo[4,3-a]pyrazin-7-yl)-thiazolo[5,4-d]pyrimidin-5-yl]-piperidine-3-carboxylic acid], the Ki in assay [1] stood at 38 nM. For the same compound, the IC50 at Human P2Y12 receptor was 32 nM.
In assay [1], `CCCc1cc2c(N3CCn4c(nnc4C(F)(F)F)C3)nc(OCCCO)nc2s1` [Example 3-10, 3-[6-Propyl-4-(3-trifluoromethyl-5,6-dihydro-8H-[1,2,4]triazolo[4,3-a]pyrazin-7-yl)-thieno[2,3-d]pyrimidin-2-yloxy]-propan-1-ol] came in with a Ki of 64 nM. The IC50 at Human P2Y12 receptor amounted to 140 nM.
On to `CCCc1cc2c(N3CCn4c(nnc4C(F)(F)F)C3)nc(OCc3ccccn3)nc2s1` [Example 3-23, 7-[6-Propyl-2-(pyridin-2-ylmethoxy)-thieno[2,3-d]pyrimidin-4-yl]-3-trifluoromethyl-5,6,7,8-tetrahydro-[1,2,4]triazolo[4,3-a]pyrazine], for which, in assay [1], the Ki is greater than 4000 nM. On Human P2Y12 receptor, the IC50 stood at 370 nM.
Regarding `CCCc1cc2c(N3CCn4c(nnc4C(F)(F)F)C3)nc(N3CCC(=NO)C3)nc2s1` [Example 1-19, 1-[6-Propyl-4-(3-trifluoromethyl-5,6-dihydro-8H-[1,2,4]triazolo[4,3-a]pyrazin-7-yl)-thieno[2,3-d]pyrimidin-2-yl]-pyrrolidin-3-one oxime], the inhibition constant (Ki) in assay [1] came to 56 nM. For the same compound, on Human P2Y12 receptor, the IC50 worked out at 55 nM.
`CCCc1cc2c(N3CCn4c(nnc4C(F)(F)F)C3)nc(Oc3ccc(CCC(=O)OC)cc3)nc2s1` [Example 3-41, 3-{4-[6-Propyl-4-(3-trifluoromethyl-5,6-dihydro-8H-[1,2,4]triazolo[4,3-a]pyrazin-7-yl)-thieno[2,3-d]pyrimidin-2-yloxy]-phenyl}-propionic acid methyl ester]: the Ki in assay [1] came out at 1500 nM. Besides, the IC50 at Human P2Y12 receptor amounted to 390 nM.
Compound `CCCc1cc2c(N3CCn4c(nnc4C(F)(F)F)C3)nc(-c3nnc(CC4CCCCC4)o3)nc2s1` [Example 4-43, 7-[2-(5-Cyclohexylmethyl-[1,3,4]oxadiazol-2-yl)-6-propyl-thieno[2,3-d]pyrimidin-4-yl]-3-trifluoromethyl-5,6,7,8-tetrahydro-[1,2,4]triazolo[4,3-a]pyrazine] had a Ki in assay [1] of 2700 nM. For the same compound, the IC50 at Human P2Y12 receptor came out at 147 nM.
For `CCCc1cc2c(N3CCn4c(nnc4C(F)(F)F)C3)nc(N3CCn4cc(C(F)(F)F)nc4C3)nc2s1` [Example 1-78, 7-[6-Propyl-2-(2-trifluoromethyl-5,6-dihydro-8H-imidazo[1,2-a]pyrazin-7-)-thieno[2,3-d]pyrimidin-4-yl]-3-trifluoromethyl-5,6,7,8-tetrahydro-[1,2,4]triazolo[4,3-a]pyrazine], in that order: 200 nM and 110 nM.
As to `CCCc1cc2c(N3CCn4c(nnc4C(F)(F)F)C3)nc(NC(Cc3ccc(O)cc3)C(=O)O)nc2s1` (stereo not shown) [Example 1-81, 3-(4-Hydroxy-phenyl)-2-[6-propyl-4-(3-trifluoromethyl-5,6-dihydro-8H-[1,2,4]triazolo[4,3-a]pyrazin-7-yl)-thieno[2,3-d]pyrimidin-2-ylamino]-propionic acid], the affinity in assay [1], expressed as Ki, was 2300 nM. Moreover, the IC50 on Human P2Y12 receptor was 320 nM.
Compound `CCCc1cc2c(N3CCn4c(nnc4C(F)(F)F)C3)nc(C3=N[C@H](CC(=O)O)CS3)nc2s1` [Example 4-49, {(R)-2-[6-Propyl-4-(3-trifluoromethyl-5,6-dihydro-8H-[1,2,4]triazolo[4,3-a]pyrazin-7-yl)thieno[2,3-d]pyrimidin-2-yl]-4,5-dihydro-thiazol-4-yl}acetic acid] registered a Ki in assay [1] of 11 nM. In addition, the IC50 at Human P2Y12 receptor turned out to be 33 nM.
Turning to `CCCc1cc2c(N3CCn4c(nnc4C(F)(F)F)C3)nc(OCCNC(=O)CN)nc2s1` [Example 3-65, 2-Amino-N-{2-[6-propyl-4-(3-trifluoromethyl-5,6-dihydro-8H-[1,2,4]triazolo[4,3-a]pyrazin-7-yl)-thieno[2,3-d]pyrimidin-2-yloxy]-ethyl}-acetamide], affinity in assay [1] was put at a Ki of 13 nM. Further, the IC50 on Human P2Y12 receptor came to 180 nM.
Compound `CCCc1cc2c(N3CCn4c(nnc4C(F)(F)F)C3)nc(Oc3ccc(CCC(=O)O)cc3)nc2s1` [Example 3-42, 3-{4-[6-Propyl-4-(3-trifluoromethyl-5,6-dihydro-8H-[1,2,4]triazolo[4,3-a]pyrazin-7-yl)-thieno[2,3-d]pyrimidin-2-yloxy]-phenyl}-propionic acid] came in with a Ki in assay [1] of 660 nM. For the same compound, the IC50 on Human P2Y12 receptor came out at 250 nM.
For `CCCc1cc2c(N3CCn4c(nnc4C(F)(F)F)C3)nc(OCCNC(=O)c3ccccn3)nc2s1` [Example 3-70, Pyridine-2-carboxylic acid {2-[6-propyl-4-(3-trifluoromethyl-5,6-dihydro-8H-[1,2,4]triazolo[4,3-a]pyrazin-7-yl)-thieno[2,3-d]pyrimidin-2-yloxy]-ethyl}-amide], in that order: 7 nM and 17 nM.
As to `CCCc1cc2c(N3CCn4c(nnc4C(F)(F)F)C3)nc(Nc3nc(C(=O)O)cs3)nc2s1` [Example 1-132, 2-[6-Propyl-4-(3-trifluoromethyl-5,6-dihydro-8H-[1,2,4]triazolo[4,3-a]pyrazin-7-yl)thieno[2,3-d]pyrimidin-2-ylamino]thiazole-4-carboxylic acid], the affinity in assay [1], expressed as Ki, was 100 nM. Moreover, the IC50 on Human P2Y12 receptor came to 47 nM.
